# Laboratory results taken from patent publication EP0877740B1, “THIOL DERIVATIVES WITH METALLOPEPTIDASE INHIBITORY ACTIVITY” (ZAMBON GROUP S.p.A., priority 1995, dated 1997).
# Read-outs that look alike come from different tables or passages of the source.
# Assays:
# [1] = molecular target: T1, ACE (Rattus norvegicus, UniProt P47820); experiment: Ex vivo ACE-inhibitory activity in lung homogenates of treated SHR (radiometric, [3H]Hyp-Gly-Gly); set-up: species or system spontaneously hypertensive rats (SHR); details: SHR lungs, oral 30 µmoles/kg
# T1 construct: After the removal of the lungs from SHR, the lung tissue was homogenized; from tissue; host or cells: lung homogenate of spontaneously hypertensive rats (SHR)
# T1 sequence (P47820 36-1313): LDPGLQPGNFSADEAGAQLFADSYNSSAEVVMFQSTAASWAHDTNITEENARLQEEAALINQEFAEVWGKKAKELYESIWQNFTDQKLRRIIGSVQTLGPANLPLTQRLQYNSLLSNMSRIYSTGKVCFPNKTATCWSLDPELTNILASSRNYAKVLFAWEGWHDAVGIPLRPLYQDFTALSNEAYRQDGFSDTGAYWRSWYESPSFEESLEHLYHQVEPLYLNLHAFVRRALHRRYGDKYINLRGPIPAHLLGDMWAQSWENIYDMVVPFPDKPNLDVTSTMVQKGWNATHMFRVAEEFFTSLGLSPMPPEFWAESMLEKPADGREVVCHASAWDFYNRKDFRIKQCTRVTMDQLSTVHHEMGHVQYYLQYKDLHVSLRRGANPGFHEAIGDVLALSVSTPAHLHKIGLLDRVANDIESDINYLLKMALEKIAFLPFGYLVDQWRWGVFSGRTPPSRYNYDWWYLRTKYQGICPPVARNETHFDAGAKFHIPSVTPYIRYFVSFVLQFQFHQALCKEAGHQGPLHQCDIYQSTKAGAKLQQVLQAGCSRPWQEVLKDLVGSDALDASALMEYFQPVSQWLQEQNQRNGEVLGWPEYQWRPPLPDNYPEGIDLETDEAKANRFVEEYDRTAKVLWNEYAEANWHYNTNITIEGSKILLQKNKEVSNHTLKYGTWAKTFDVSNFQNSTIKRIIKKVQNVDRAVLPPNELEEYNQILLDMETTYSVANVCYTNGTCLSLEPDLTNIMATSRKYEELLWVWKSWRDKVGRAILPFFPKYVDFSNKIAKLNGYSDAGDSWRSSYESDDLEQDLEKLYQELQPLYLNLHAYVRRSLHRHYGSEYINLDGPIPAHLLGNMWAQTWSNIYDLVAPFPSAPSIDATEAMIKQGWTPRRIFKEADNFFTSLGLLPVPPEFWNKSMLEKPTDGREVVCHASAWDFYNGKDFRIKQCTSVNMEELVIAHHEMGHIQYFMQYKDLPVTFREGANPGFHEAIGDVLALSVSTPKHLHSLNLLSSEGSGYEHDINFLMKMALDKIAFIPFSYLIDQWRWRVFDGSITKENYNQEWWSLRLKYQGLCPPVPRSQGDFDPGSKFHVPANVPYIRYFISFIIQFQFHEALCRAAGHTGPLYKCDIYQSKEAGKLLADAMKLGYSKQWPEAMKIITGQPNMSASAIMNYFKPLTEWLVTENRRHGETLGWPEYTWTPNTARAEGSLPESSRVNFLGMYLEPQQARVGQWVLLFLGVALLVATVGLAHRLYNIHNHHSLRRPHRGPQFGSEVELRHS
# Procedure: (§1) The ex-vivo ACE/NEP-inhibitory activity, in particular, was determined by evaluating the enzymatic activity in tissue homogenates (lung and kidney for ACE and NEP activity, respectively) from spontaneously hypertensive rats (SHR) treated with the tested compounds by intravenous or oral route.
# The ex vivo ACE-inhibitory activity was evaluated by using a radiometric assay method, as reported in the literature by J. W. Ryan et al. in Biochem. J. (1977), 167, 501-504.
# The inhibitory activity of the compounds of formula I was evaluated in lungs of spontaneously hypertensive rats (SHR), 5 minutes after i.v. injection (0.6 and 21 µmoles/kg) and 30 minutes, 60 minutes and 4 hours after oral administration (30 µmoles/kg) of the tested compounds.
# After the removal of the lungs from SHR, the lung tissue was homogenized and incubated for 2 hours at 37°C in the presence of [^3H]Hyp-Gly-Gly, as a substrate.
# The reaction was stopped by adding hydrochloric acid.
# The released radiolabelled hyppuric acid was extracted with ethyl acetate and counted by liquid scintillation spectrometry, according to conventional methods.
# The ACE-inhibitory activity of the tested compounds was expressed as percentage of ACE-inhibition in SHR lungs.
# [2] = molecular target: T2, NEP (Rattus norvegicus, UniProt P07861); experiment: Ex vivo NEP-inhibitory activity in kidney homogenates of treated SHR (GAAP substrate); set-up: After the removal of the kidneys from SHR, the renal tissue was homogenized; from tissue; host or cells: kidney homogenate of spontaneously hypertensive rats (SHR); species or system spontaneously hypertensive rats (SHR); details: oral 30 µmoles/kg; for inhibition at 30 µmol/kg: rat, SHR kidneys
# T2 sequence (P07861 1-750): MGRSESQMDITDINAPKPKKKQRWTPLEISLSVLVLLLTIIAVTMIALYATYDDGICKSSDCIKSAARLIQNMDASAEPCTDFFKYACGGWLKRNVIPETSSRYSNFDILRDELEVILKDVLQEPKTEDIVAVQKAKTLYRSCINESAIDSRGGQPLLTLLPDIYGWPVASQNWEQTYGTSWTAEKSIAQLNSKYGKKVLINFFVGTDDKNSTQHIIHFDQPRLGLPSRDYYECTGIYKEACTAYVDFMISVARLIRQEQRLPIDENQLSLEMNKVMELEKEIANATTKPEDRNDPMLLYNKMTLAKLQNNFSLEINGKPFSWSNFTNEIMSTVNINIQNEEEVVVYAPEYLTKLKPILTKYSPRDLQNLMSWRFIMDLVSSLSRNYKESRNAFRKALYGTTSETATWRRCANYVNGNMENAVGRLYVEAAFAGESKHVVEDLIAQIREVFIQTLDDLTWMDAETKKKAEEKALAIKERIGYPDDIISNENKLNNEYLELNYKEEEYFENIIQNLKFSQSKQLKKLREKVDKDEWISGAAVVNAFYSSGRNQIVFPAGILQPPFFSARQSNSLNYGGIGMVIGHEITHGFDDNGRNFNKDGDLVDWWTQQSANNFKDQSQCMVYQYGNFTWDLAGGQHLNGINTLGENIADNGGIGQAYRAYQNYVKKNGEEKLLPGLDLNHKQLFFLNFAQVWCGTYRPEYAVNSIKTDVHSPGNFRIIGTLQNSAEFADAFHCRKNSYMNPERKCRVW
# Procedure: as §1
# The ex vivo NEP-inhibitory activity was evaluated according to the procedure reported in the literature by M. Orlowsky et al., in Biochemistry 1981, 20, 4942-4950.
# The inhibitory activity of the compounds of formula I was evaluated in kidneys of spontaneously hypertensive rats (SHR), 5 minutes after i.v. injection (0.6 and 21 µmoles/kg) and 30 minutes, 60 minutes and 4 hours after oral administration (30 µmoles/kg) of the tested compounds.
# After the removal of the kidneys from SHR, the renal tissue was homogenized and incubated for 15 minutes at 37°C in the presence of Glutaryl-Ala-Ala-Phe-2-naphthylamide (GAAP), as a substrate, and aminopeptidase M at pH 7.6.
# The reaction was stopped by adding an aqueous solution at 10% of trichloroacetic acid.
# The released 2-naphthylamine was determined by adding fast garnet dye (2 ml).
# Enzyme reaction rates were determined by measuring the increase in the optical density at 524 nm (OD524) with respect to a standard obtained with 2-naphthylamine complexed with fast garnet.
# The NEP-inhibitory activity of the tested compounds was expressed as percentage of NEP-inhibition in SHR kidneys.
# [3] = 30 minutes after administration, read-out: ACE-inhibition (lungs) 30 minutes
# [4] = 4 hours after administration, read-out: ACE-inhibition (lungs) 4 hours
# [5] = 30 minutes after administration, read-out: NEP-inhibition (kidneys) 30 minutes
SMILES,"inhibition at 30 µmol/kg [1, 3] [%]","inhibition at 30 µmol/kg [1, 4] [%]",NEP-inhibition (kidneys) 4 hours ([2]; 4 hours after administration),"inhibition at 30 µmol/kg [2, 5] [%]","inhibition at 30 µmol/kg ([2]; 4 hours after administration, read-out: NEP-inhibition (kidneys) 4 hours) [%]",NEP-inhibition (kidneys) 30 minutes ([2]; 30 minutes after administration)
"O=C(N[C@@H](Cc1ccccc1)C(=O)O)C(CS)Cc1ccc2c(c1)OCO2 (stereo partly drawn) [Compound R-1, N-[3-mercapto-2-(3,4-methylenedioxyphenyl)methyl-propionyl]-(S)-phenylalanine]",25,20,not active,5,,
"O=C(N[C@@H](Cc1ccc(O)cc1)C(=O)O)C(CS)Cc1ccc2c(c1)OCO2 (stereo partly drawn) [Compound R-2, N-[3-mercapto-2-(3,4-methylenedioxyphenyl)methyl-propionyl)-(S)-tyrosine]",30,25,not active,30,,
"CC(CS)C(=O)N[C@@H](Cc1ccc(O)cc1)C(=O)O (stereo partly drawn) [Compound R-3, N-(3-mercapto-2-methylpropanoyl)-L-tyrosine]",25,20,,10,5,
"CC(CS)C(=O)N[C@@H](Cc1c[nH]c2ccccc12)C(=O)O (stereo partly drawn) [Compound R-4, N-(3-mercapto-2-methylpropanoyl)-L-triptophan]",25,10,not active,,,not active
